Results taken from patent US10239851B2 (priority 2014, dated 2019).
Where two headings read alike, the source gives them in different places.

Experiments:
[1] = test system: human prostate cancer PC-3; conditions: PC-3 xenograft, nude mice, 13 mg/kg, D0 IV, single dose;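 note: PC-3 tumors were established by implanting the cells under the skin of nude mice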
Description: Test of the inhibitory activity of the water soluble cabazitaxel derivatives on subcutaneously xenografted tumor of human prostate cancer PC-3 in nude mice: evaluating and comparing the inhibitory activity of the water soluble cabazitaxel derivatives and cabazitaxel on subcutaneously xenografted tumor of human prostate cancer PC-3 in nude mice.
Human prostate cancer PC-3 cells were subcutaneously inoculated into nude mice. After the tumor volume reached 100-150 mm^3, the animals were randomly divided into several groups, and administered with the water soluble cabazitaxel derivatives of the present invention and cabazitaxel, respectively once on the same day (D0). The tumor volume was measured 2-3 times per week, the animals were weighed and the data were recorded until day 20 (D20) after grouping.
(§1) The tumor volume (V) was calculated according to the equation: V=½×a×b^2, wherein a and b represent the length and the width, respectively.
(§2) T/C (%)=(T−T0)/(C−C0)×100, wherein T and C represent the tumor volume at the end of the experiment; and T0 and C0 represent the tumor volume at the beginning of the experiment.

[2] = rat plasma, 37° C.
Method: (§3) 0.1 ml samples were taken from each of the solutions, added respectively to 1 ml of blood plasma of rabbit (taken from New Zealand white rabbits, treated according to conventional methods, anticoagulated with heparin) or 1 ml of blood plasma of rat (taken from live SD rats, treated according to conventional methods, anticoagulated with heparin), homogeneously mixed, and placed in a thermostatic water bath at 37° C. for incubation with time being recorded. Samples were taken at different time points after the experiment began, and 2 ml of acetonitrile was immediately added. The samples were shaken and centrifuged for 5 min (15,000 rpm), and the supernatant was then taken for HPLC analysis.

[3] = rabbit plasma, 37° C.; for Sampling time/dissociation percent (%) 15 s / Sampling time/dissociation percent (%) 30 s: formula F derivatives; for Sampling time/dissociation percent (%) 15 S / Sampling time/dissociation percent (%) 30 S: formula G derivatives
Method: as §3

[4] = test system: human ovarian cancer SK-OV-3; conditions: 24 mg/kg (paclitaxel 16 mg/kg) D0-4 IV
Description: Test of the inhibitory activity of the water soluble paclitaxel derivatives on subcutaneously xenografted tumor of human ovarian cancer SK-OV-3 in nude mice: evaluating and comparing the inhibitory activity of the water soluble paclitaxel derivatives of the present invention, paclitaxel and Abraxane® on subcutaneously xenografted tumor of human ovarian cancer SK-OV-3 in nude mice.
Human ovarian cancer SK-OV-3 cells were subcutaneously inoculated to nude mice. After the tumor volume reached 100-150 mm^3, the animals were randomly divided into groups (D0), and administered with the water soluble paclitaxel derivatives of the present invention, paclitaxel, and Abraxane®, respectively once per day for 5 days. The tumor volume was measured 2-3 times per week, the animals were weighed and the data were recorded until day 22 (D22) after grouping.
as §1, §2

[5] = In vitro dissociation of the water soluble taxane derivatives in blood plasma of rat; format: in vitro ADME, SD rats; conditions: 37° C.
Method: The obtained water soluble taxane derivatives were formulated as 0.2 mg/ml aqueous solutions. […] After 2 min, 5 min and 10 min of incubation, 0.2 ml of solutions were respectively taken from each of the samples, and added to acetonitrile (0.4 ml) cooled to −20° C. for precipitation of protein.

[6] = In vitro dissociation of the water soluble taxane derivatives in blood plasma of rabbit; format: in vitro ADME, New Zealand white rabbits; conditions: 37° C.
Method: The obtained water soluble taxane derivatives were formulated as 0.2 mg/ml aqueous solutions. […] After 5 min, 20 min and 60 min of incubation, 0.2 ml of solutions were respectively taken from each of the samples, and added to acetonitrile (0.4 ml) cooled to −20° C. for precipitation of protein.

CO[C@H]1C(=O)[C@]2(C)[C@@H](OC)C[C@H]3OC[C@@]3(OC(C)=O)[C@H]2[C@H](OC(=O)c2ccccc2)[C@]2(O)C[C@H](OC(=O)[C@H](OC(=O)[C@H](F)CCCN(C)C)[C@@H](NC(=O)OC(C)(C)C)c3ccccc3)C(C)=C1C2(C)C.Cl [Compound 35, 2′-O-[5-(N,N-dimethyl)amino-2(R)-fluorovaleryl]cabazitaxel hydrochloride]
Tumor volume (mm^3) (D0) ([1]; D0 (baseline at grouping)): 112.9 ± 4.4 mm^3
Weight change (%) D6 ([1]; D6): −16.6%
T/C (%) D20 ([1]; D20): −28%
Tumor inhibitory percent (%) D20 ([1]; D20): 64%
Tumor volume (mm^3) (D20) ([1]; D20): 55.3 ± 13.8 mm^3

CC(C)c1cccc(C(C)C)c1OC(=O)C(F)CCC(=O)[O-].[K+] [Compound F2, propofol 4-carboxyl-2(S)-fluorovalerate potassium salt]
Sampling time/dissociation percent (%) 5 s ([2]; formula F derivatives): 92.3%
Sampling time/dissociation percent (%) 15 s [3]: 73.4%
Sampling time/dissociation percent (%) 30 s [3]: 94.8%

CC(C)c1cccc(C(C)C)c1OC(=O)C(CF)CP(=O)([O-])[O-].CC(C)c1cccc(C(C)C)c1OC(=O)C(CF)CP(=O)([O-])[O-].CC(C)c1cccc(C(C)C)c1OC(=O)C(CF)CP(=O)([O-])[O-].[Al+3].[Al+3] (racemic) [Compound G6, tri[propofol 3-phosphoryl-2(R,S)-2-monofluoromethylpropionate] dialuminum salt]
Sampling time/dissociation percent (%) 5 S ([2]; formula G derivatives): 22.1%
Sampling time/dissociation percent (%) 15 S ([2]; formula G derivatives): 39.7%
Sampling time/dissociation percent (%) 15 S [3]: 27.1%
Sampling time/dissociation percent (%) 30 S [3]: 44.3%

CC(C)c1cccc(C(C)C)c1OC(=O)[C@H](F)CCN1CCCC1.Cl [Compound E8, propofol 4-(pyrrolidin-1-yl)-2(R)-2-fluorobutyrate hydrochloride]
dissociation percent ([2]; 5 s): 95.6%
dissociation percent ([3]; 15 s): 91.1%
dissociation percent ([3]; 30 s): 98.2%

CC(C)NCC(CF)C(=O)Oc1c(C(C)C)cccc1C(C)C.CS(=O)(=O)O (racemic) [Compound E6, propofol 3-(N-isopropyl)amino-2(R,S)-2-monofluoromethylpropionate methanesulfonate]
dissociation percent ([2]; 5 s): 24.2%
dissociation percent ([2]; 15 s): 40.1%
dissociation percent ([3]; 15 s): 27.1%
dissociation percent ([3]; 30 s): 44.3%

CC(C)c1cccc(C(C)C)c1OC(=O)[C@@H](CCN(C)C)C(F)(F)F.Cl [Compound E3, propofol 4-(N,N-dimethyl)amino-2(R)-2-trifluoromethylbutyrate hydrochloride]
dissociation percent ([2]; 5 s): 77.5%
dissociation percent ([3]; 15 s): 51.7%
dissociation percent ([3]; 30 s): 67.2%

CC(C)c1cccc(C(C)C)c1OC(=O)[C@@H](F)CCCN(C)Cc1ccccc1.Cl [Compound E5, propofol 5-(N-methyl-N-benzyl)amino-2(S)-2-fluorovalerate hydrochloride]
dissociation percent ([2]; 5 s): 72.3%
dissociation percent ([2]; 15 s): 97.3%
dissociation percent ([3]; 15 s): 48.4%
dissociation percent ([3]; 30 s): 69.7%

CCN(CC)CC[C@@H](F)C(=O)O[C@@H](C(=O)O[C@H]1C[C@@]2(O)[C@@H](OC(=O)c3ccccc3)[C@@H]3[C@]4(OC(C)=O)CO[C@@H]4C[C@H](OC)[C@@]3(C)C(=O)[C@H](OC)C(=C1C)C2(C)C)[C@@H](NC(=O)OC(C)(C)C)c1ccccc1.CS(=O)(=O)O [Compound 31, 2′-O-[4-(N,N-diethyl)amino-2(R)-fluorobutyryl]cabazitaxel methanesulfonate]
T/C (%) D20 ([1]; D20): −50%

CC(C)c1cccc(C(C)C)c1OC(=O)C(F)CCOP(=O)([O-])[O-].[K+].[K+] (racemic) [Compound G1, {1-[4-(2,6-diisopropylphenoxy)-4-oxo-3-(R,S)-3-fluoro-1-butyl]} phosphate monoester dipotassium salt]
Sampling time/dissociation percent (%) 5 S ([2]; formula G derivatives): 54.1%
Sampling time/dissociation percent (%) 15 S ([2]; formula G derivatives): 67.4%
Sampling time/dissociation percent (%) 30 S ([2]; formula G derivatives, sampling time 30 s): 86.9%
Sampling time/dissociation percent (%) 15 S [3]: 43.7%
Sampling time/dissociation percent (%) 30 S [3]: 68.7%

CC(C)c1cccc(C(C)C)c1OC(=O)C(F)CCCCCC(=O)[O-].CC(C)c1cccc(C(C)C)c1OC(=O)C(F)CCCCCC(=O)[O-].[Ca+2] (racemic) [Compound F4, di[propofol 7-carboxyl-2(R,S)-fluorocaprylate] calcium salt]
Sampling time/dissociation percent (%) 5 s ([2]; formula F derivatives): 63.8%
Sampling time/dissociation percent (%) 15 s [3]: 48.3%
Sampling time/dissociation percent (%) 30 s [3]: 61.7%

CCN(C)CCC(F)C(=O)Oc1c(C(C)C)cccc1C(C)C.Cl (racemic) [Compound E4, propofol 4-(N-methyl-N-ethyl)amino-2(R,S)-2-fluorobutyrate hydrochloride]
dissociation percent ([2]; 5 s): 70.2%
dissociation percent ([3]; 15 s): 58.3%
dissociation percent ([3]; 30 s): 70.4%

CC(C)c1cccc(C(C)C)c1OC(=O)C(F)CCCC(=O)[O-].CC(C)c1cccc(C(C)C)c1OC(=O)C(F)CCCC(=O)[O-].[Zn+2] [Compound F5, di[propofol 5-carboxyl-2(S)-fluorohexanoate] zinc salt]
Sampling time/dissociation percent (%) 5 s ([2]; formula F derivatives): 63.2%
Sampling time/dissociation percent (%) 15 s ([2]; formula F derivatives): 80.3%
Sampling time/dissociation percent (%) 15 s [3]: 34.9%
Sampling time/dissociation percent (%) 30 s [3]: 58.8%

CC(=O)O[C@H]1C(=O)[C@@]2(C)[C@H]([C@H](OC(=O)c3ccccc3)[C@]3(O)C[C@H](OC(=O)[C@H](OC(=O)C(F)CCN(C)C)[C@@H](NC(=O)c4ccccc4)c4ccccc4)C(C)=C1C3(C)C)[C@]1(OC(C)=O)CO[C@@H]1C[C@@H]2O.CS(=O)(=O)O (stereo partly drawn) [Compound C3, 2′-O-[4-(N,N-dimethyl)amino-2(R,S)-fluorobutyryl]paclitaxel methanesulfonate]
Weight change (%) D4 ([4]; D4): −6.0%
T/C (%) D22 ([4]; D22): −64%
Tumor volume (D22) ([4]; D22): 50.6 ± 9.7 mm^3
Tumor inhibitory percent (%) D22 ([4]; D22, P=0.000 compared to the control): 165%
dissociation percent ([5]; 2 min): 63.7%
dissociation percent ([5]; 5 min): 96.8%
dissociation percent ([5]; 10 min): 100%
dissociation percent ([6]; 5 min): 76.5%
dissociation percent ([6]; 20 min): 94.6%
dissociation percent ([6]; 60 min): 100%

CC(C)c1cccc(C(C)C)c1OC(=O)C(F)CCN(C)C.Cl (racemic) [Compound E1, Propofol 4-(N,N-dimethyl)amino-2(R,S)-fluorobutyrate Hydrochloride]
dissociation percent ([2]; 5 s): 75.1%
dissociation percent ([2]; 15 s): 83.2%
dissociation percent ([2]; 30 s): 96.7%
dissociation percent ([3]; 15 s): 67.5%
dissociation percent ([3]; 30 s): 85.5%

CC(C)c1cccc(C(C)C)c1OC(=O)[C@@H](CCOP(=O)([O-])[O-])C(F)(F)F.[Li+].[Li+] [Compound G3, {1-[4-(2,6-diisopropylphenoxy)-4-oxo-3-(R)-3-trifluoromethyl-1-butyl]} phosphate monoester dilithium salt]
Sampling time/dissociation percent (%) 5 S ([2]; formula G derivatives): 38.7%
Sampling time/dissociation percent (%) 15 S [3]: 21.7%
Sampling time/dissociation percent (%) 30 S [3]: 43.6%

CC(C)c1cccc(C(C)C)c1OC(=O)[C@@H](F)CCN1CC1.Cl [Compound E7, propofol 4-N-(aziridin-1-yl)-2(S)-2-fluorobutyrate hydrochloride]
dissociation percent ([2]; 5 s): 92.3%
dissociation percent ([3]; 15 s): 89.4%
dissociation percent ([3]; 30 s): 94.4%

CC(C)c1cccc(C(C)C)c1OC(=O)C(CCC(=O)[O-])C(F)(F)F.[Li+] [Compound F3, propofol 4-carboxyl-2(R)-2-trifluoromethyl valerate lithium salt]
Sampling time/dissociation percent (%) 5 s ([2]; formula F derivatives): 47.4%
Sampling time/dissociation percent (%) 15 s [3]: 28.4%
Sampling time/dissociation percent (%) 30 s [3]: 47.9%

CC(C)c1cccc(C(C)C)c1OC(=O)C(CF)CCCCCCC(=O)[O-].CC(C)c1cccc(C(C)C)c1OC(=O)C(CF)CCCCCCC(=O)[O-].CC(C)c1cccc(C(C)C)c1OC(=O)C(CF)CCCCCCC(=O)[O-].[Al+3] (racemic) [Compound F6, tri[propofol 8-carboxyl-2(R,S)-monofluoromethylpelargonate] aluminum salt]
Sampling time/dissociation percent (%) 5 s ([2]; formula F derivatives): 34.2%
Sampling time/dissociation percent (%) 15 s ([2]; formula F derivatives): 55.7%
Sampling time/dissociation percent (%) 15 s [3]: 37.1%
Sampling time/dissociation percent (%) 30 s [3]: 58.3%

CC(C)c1cccc(C(C)C)c1OC(=O)C(F)C(=O)[O-].[Na+] [Compound F8, propofol 2-carboxyl-2(S)-fluoropropionate sodium salt]
Sampling time/dissociation percent (%) 5 s ([2]; formula F derivatives): 55.5%
Sampling time/dissociation percent (%) 15 s ([2]; formula F derivatives): 69.3%
Sampling time/dissociation percent (%) 30 s ([2]; formula F derivatives, sampling time 30 s): 83.3%
Sampling time/dissociation percent (%) 15 s [3]: 41.2%
Sampling time/dissociation percent (%) 30 s [3]: 70.4%
